Results: the NIST ThermoML archive (doi:10.1021/je900691n)

Experiment: xn = mol fraction of the nth substance listed
Settings: Liquid, Pycnometric method

COC(=O)OC [dimethyl carbonate] + O=C=O
Settings	mass density [kg/m3]
327.95 K, 9750 kPa, x1 = 0.1484	856
327.95 K, 9760 kPa, x1 = 0.118	818
327.95 K, 9770 kPa, x1 = 0.0242	407
327.95 K, 9860 kPa, x1 = 0.0242	418
327.95 K, 9950 kPa, x1 = 0.0242	430
327.95 K, 9990 kPa, x1 = 0.086	750
327.95 K, 10040 kPa, x1 = 0.0242	442
327.95 K, 10120 kPa, x1 = 0.0242	453
327.95 K, 10240 kPa, x1 = 0.118	827
327.95 K, 10240 kPa, x1 = 0.1484	862
327.95 K, 10400 kPa, x1 = 0.086	762
327.95 K, 10740 kPa, x1 = 0.086	772
327.95 K, 10740 kPa, x1 = 0.118	835
327.95 K, 10770 kPa, x1 = 0.1484	868
327.95 K, 11180 kPa, x1 = 0.086	782
327.95 K, 11220 kPa, x1 = 0.118	842
327.95 K, 11260 kPa, x1 = 0.1484	873
327.95 K, 11650 kPa, x1 = 0.086	792
327.95 K, 11720 kPa, x1 = 0.118	849
327.95 K, 11760 kPa, x1 = 0.1484	878
327.95 K, 12200 kPa, x1 = 0.118	855
327.95 K, 12210 kPa, x1 = 0.086	802
327.95 K, 12260 kPa, x1 = 0.1484	883
327.95 K, 12680 kPa, x1 = 0.118	861
327.95 K, 12750 kPa, x1 = 0.086	812
327.95 K, 12800 kPa, x1 = 0.1484	888
327.95 K, 13200 kPa, x1 = 0.086	819
327.95 K, 13310 kPa, x1 = 0.1484	893
327.95 K, 13320 kPa, x1 = 0.118	868
327.95 K, 13680 kPa, x1 = 0.086	826
327.95 K, 13780 kPa, x1 = 0.118	873
327.95 K, 13800 kPa, x1 = 0.1484	897
327.95 K, 14170 kPa, x1 = 0.086	833
327.95 K, 14240 kPa, x1 = 0.1484	901
327.95 K, 14310 kPa, x1 = 0.118	879
327.95 K, 14710 kPa, x1 = 0.086	840
327.95 K, 14780 kPa, x1 = 0.1484	905
327.95 K, 14800 kPa, x1 = 0.118	884
327.95 K, 15160 kPa, x1 = 0.086	846
327.95 K, 15260 kPa, x1 = 0.118	888
327.95 K, 15300 kPa, x1 = 0.1484	909
327.95 K, 15660 kPa, x1 = 0.086	852
327.95 K, 15740 kPa, x1 = 0.118	892
327.95 K, 15860 kPa, x1 = 0.1484	913
327.95 K, 16180 kPa, x1 = 0.086	858
327.95 K, 16330 kPa, x1 = 0.118	897
327.95 K, 16560 kPa, x1 = 0.1484	918
328.15 K, 9640 kPa, x1 = 0.0481	532
328.15 K, 9710 kPa, x1 = 0.0481	543
328.15 K, 9800 kPa, x1 = 0.0481	556
328.15 K, 9910 kPa, x1 = 0.0481	570
328.15 K, 10030 kPa, x1 = 0.0481	585
328.15 K, 10180 kPa, x1 = 0.0481	600
328.15 K, 10340 kPa, x1 = 0.0481	615
328.15 K, 10540 kPa, x1 = 0.0481	632
328.15 K, 10720 kPa, x1 = 0.0481	645
328.15 K, 10940 kPa, x1 = 0.0481	659
328.15 K, 11190 kPa, x1 = 0.0481	673
328.15 K, 11350 kPa, x1 = 0.0481	681
332.85 K, 9040 kPa, x1 = 0.0242	282
332.85 K, 9110 kPa, x1 = 0.0242	287
332.85 K, 9180 kPa, x1 = 0.1484	814
332.85 K, 9200 kPa, x1 = 0.0242	292
332.85 K, 9270 kPa, x1 = 0.0242	298
332.85 K, 9350 kPa, x1 = 0.0242	305
332.85 K, 9430 kPa, x1 = 0.0242	311
332.85 K, 9520 kPa, x1 = 0.0242	318
332.85 K, 9620 kPa, x1 = 0.118	768
332.85 K, 9620 kPa, x1 = 0.1484	821
332.85 K, 9640 kPa, x1 = 0.0242	329
332.85 K, 9720 kPa, x1 = 0.0242	336
332.85 K, 9810 kPa, x1 = 0.0242	344
